# Source: patent publication US11465998B2, “Therapeutic compounds and methods of use thereof” (Regents of the University of Minnesota, priority 2019, dated 2022)
# “Also recorded” adds a separate entry of the source.
# Legend:
# Assay type in all cases: cell-based
# [1] = tested on: human peripheral blood mononuclear cells (PBMCs); assay: Multiplexed immunoassays for human cytokines in PBMCs
# Description: (§1) Example 5: High-throughput screens in porcine blood: Curated compound collections were obtained from the Institute for Therapeutics Discovery & Development at the University of Minnesota. Compound transfers from source (80 nL of 10 mM stocks) to assay plates were performed using an Echo 550 acoustic liquid handler (Labcyte, Sunnyvale, Calif.). For most libraries, a target final concentration of 10 μM of compound (in a final volume of 80 μL for the assay described below) was achieved. Compound plates were hermetically sealed and stored at −80° C. until used. Fresh, heparin-anticoagulated porcine blood from healthy animals were obtained under USDA supervision from Midwest Research Swine, LLC (Glencoe, Minn.). 80 μL of hematocrit-enriched porcine blood (low-speed centrifugation, followed by resuspension in DMEM supplemented with 10% fetal bovine serum) was added to compound plates and incubated for 15 h. The following day, the plates were briefly centrifuged (100 g, 10 min), and supernatants were transferred using an automated ViaFlow 384 transfer device (Integra Biosciences Corp., Hudson, N.H.) to assay plates containing of 10^6 cells/mL of each of the following NF-κB/secreted alkaline phosphatase reporter cells suspended in HEK-Blue Detection Media: human IFN-α/β, human IFN-γ, human TNF-α/IL-1β (InvivoGen, San Diego, Calif.). NF-κB translocation was assayed spectrophotometrically using an alkaline phosphatase-specific chromogen (present in HEK-detection medium as supplied by InvivoGen) at 620 nm using a SpectraMax M4 multimode microplate reader (Molecular Devices, Sunnyvale, Calif.). Z′ factors were computed for each TLR/NOD-specific signals. Hits were defined as signals >4σ (in-plate standard deviations for test compounds above negative control means), were deconvoluted in full dose-response assays in human TLR-2/-3/-4/-5/-7/-8/-9 and NOD-1/NOD-2-specific reporter cells in liquid handler-assisted assay formats as described previously. Example 6: Murine knockout cell-lines: The following reagents were obtained through BEI Resources, NIAID, NIH: the microglial cell line derived from MAL/MyD88 double knockout Mice (NR-9904), and the macrophage cell line derived from TRIF/TRAM knockout mice (NR-9568). Example 7: Human NOD1/2-specific reporter gene assays (NF-κB induction), and TLR-2/-3/-4/-5/-7/-8/-9/STING/ISG counter-screens: The induction of NF-κB was quantified using human TLR-2/-3/-4/-5/-7/-8/-9/NOD-1/NOD-2/STING/ISG-specific, rapid-throughput, liquid handler-assisted reporter gene assays as previously described by us (Wu, W. et al. J. Med. Chem. 2010, 53, 3198-3213; Shukla, N. M. et al. J. Med. Chem. 2010, 53, 4450-4465; Agnihotri, G. et al. J. Med. Chem. 2011, 54, 1490-1510 and Ukani, R. et al. Bioorg. Med. Chem. Lett. 2012, 22, 293-295). […]
# human whole blood = assay: Cytokine/chemokine induction in human whole blood
# [2] = tested on: microglial cell line derived from MAL/MyD88 double knockout Mice (NR-9904); assay: Cytokine/chemokine induction in MAL/MyD88 double-knockout cell line; details: MAL/MyD88 double-knockout murine cell line
# Description: (§2) Cytokine induction by 7e and 7f was examined in murine-derived cell lines. […] The absence of activity was not due to extensive plasma protein binding by re-examining under near-serum-free conditions.
# (§3) Example 5: High-throughput screens in porcine blood: Curated compound collections were obtained from the Institute for Therapeutics Discovery & Development at the University of Minnesota. Compound transfers from source (80 nL of 10 mM stocks) to assay plates were performed using an Echo 550 acoustic liquid handler (Labcyte, Sunnyvale, Calif.). For most libraries, a target final concentration of 10 μM of compound (in a final volume of 80 μL for the assay described below) was achieved. Compound plates were hermetically sealed and stored at −80° C. until used. Fresh, heparin-anticoagulated porcine blood from healthy animals were obtained under USDA supervision from Midwest Research Swine, LLC (Glencoe, Minn.). 80 μL of hematocrit-enriched porcine blood (low-speed centrifugation, followed by resuspension in DMEM supplemented with 10% fetal bovine serum) was added to compound plates and incubated for 15 h. […] NF-κB translocation was assayed spectrophotometrically using an alkaline phosphatase-specific chromogen (present in HEK-detection medium as supplied by InvivoGen) at 620 nm using a SpectraMax M4 multimode microplate reader (Molecular Devices, Sunnyvale, Calif.). […] Example 7: Human NOD1/2-specific reporter gene assays (NF-κB induction), and TLR-2/-3/-4/-5/-7/-8/-9/STING/ISG counter-screens: The induction of NF-κB was quantified using human TLR-2/-3/-4/-5/-7/-8/-9/NOD-1/NOD-2/STING/ISG-specific, rapid-throughput, liquid handler-assisted reporter gene assays as previously described by us (Wu, W. et al. J. Med. Chem. 2010, 53, 3198-3213; Shukla, N. M. et al. J. Med. Chem. 2010, 53, 4450-4465; Agnihotri, G. et al. J. Med. Chem. 2011, 54, 1490-1510 and Ukani, R. et al. Bioorg. Med. Chem. Lett. 2012, 22, 293-295). […]
# [3] = tested on: RAW264.7 murine macrophages; assay: Cytokine/chemokine induction in wild-type RAW264.7 murine macrophages (multiplexed immunoassay); details: wild-type RAW264.7 murine macrophage cell line
# Description: as §2, §3
# [4] = tested on: macrophage cell line derived from TRIF/TRAM knockout mice (NR-9568); assay: Cytokine/chemokine induction in TRIF/TRAM double-knockout cell line; details: TRIF/TRAM double-knockout murine cell line
# Description: as §2, §3
# human NOD2 = target: T1, human NOD2 (Homo sapiens, UniProt Q9HC29); assay: human NOD2 specific reporter gene assay (NF-κB induction); details: for hNOD2-agonistic activity (in words): human NOD2 reporter gene assay; for EC50: human NOD2 specific reporter gene assay, arithmetic mean of quadruplicate samples, NA* indicates inactive under the tested conditions, read-out: hNOD2 Agonistic Activity (μM), EC50
# T1 construct: host or cells: HEK293
# Description: as §1, with “293-295). HEK293 cells stably co-transfected with the appropriate hTLR and secreted alkaline phosphatase (sAP) were maintained in HEK-Blue™ Selection medium. Stable expression of secreted alkaline phosphatase (sAP) under control of NF-κB/AP-1/IRF promoters is inducible by appropriate innate immune stimuli, and extracellular sAP in the supernatant is proportional to NF-κB/IRF induction. Reporter cells were incubated at a density of ˜10^5 cells/ml in a volume of 80 μl/well, in 384-well, flat-bottomed, cell culture-treated microtiter plates in the presence of graded concentrations of stimuli. sAP was assayed spectrophotometrically using an alkaline phosphatase-specific chromogen (present in HEK-detection medium as supplied by InvivoGen) at 620 nm. Example 8: Multiplexed immunoassays for human cytokines: Fresh human peripheral blood mononuclear cells (hPBMC) were isolated from human blood obtained by venipuncture in Cell Preparation Tubes (CPT, Beckton-Dickinson) with informed consent and as per guidelines approved by the University of Minnesota Human Subjects Experimentation Committee. Aliquots of PBMCs or THP-1 cells (10^5 cells in 100 μL/well) were stimulated for 16 h with graded concentrations of test compounds.” for “293-295).”
# T1 sequence (Q9HC29 whole entry): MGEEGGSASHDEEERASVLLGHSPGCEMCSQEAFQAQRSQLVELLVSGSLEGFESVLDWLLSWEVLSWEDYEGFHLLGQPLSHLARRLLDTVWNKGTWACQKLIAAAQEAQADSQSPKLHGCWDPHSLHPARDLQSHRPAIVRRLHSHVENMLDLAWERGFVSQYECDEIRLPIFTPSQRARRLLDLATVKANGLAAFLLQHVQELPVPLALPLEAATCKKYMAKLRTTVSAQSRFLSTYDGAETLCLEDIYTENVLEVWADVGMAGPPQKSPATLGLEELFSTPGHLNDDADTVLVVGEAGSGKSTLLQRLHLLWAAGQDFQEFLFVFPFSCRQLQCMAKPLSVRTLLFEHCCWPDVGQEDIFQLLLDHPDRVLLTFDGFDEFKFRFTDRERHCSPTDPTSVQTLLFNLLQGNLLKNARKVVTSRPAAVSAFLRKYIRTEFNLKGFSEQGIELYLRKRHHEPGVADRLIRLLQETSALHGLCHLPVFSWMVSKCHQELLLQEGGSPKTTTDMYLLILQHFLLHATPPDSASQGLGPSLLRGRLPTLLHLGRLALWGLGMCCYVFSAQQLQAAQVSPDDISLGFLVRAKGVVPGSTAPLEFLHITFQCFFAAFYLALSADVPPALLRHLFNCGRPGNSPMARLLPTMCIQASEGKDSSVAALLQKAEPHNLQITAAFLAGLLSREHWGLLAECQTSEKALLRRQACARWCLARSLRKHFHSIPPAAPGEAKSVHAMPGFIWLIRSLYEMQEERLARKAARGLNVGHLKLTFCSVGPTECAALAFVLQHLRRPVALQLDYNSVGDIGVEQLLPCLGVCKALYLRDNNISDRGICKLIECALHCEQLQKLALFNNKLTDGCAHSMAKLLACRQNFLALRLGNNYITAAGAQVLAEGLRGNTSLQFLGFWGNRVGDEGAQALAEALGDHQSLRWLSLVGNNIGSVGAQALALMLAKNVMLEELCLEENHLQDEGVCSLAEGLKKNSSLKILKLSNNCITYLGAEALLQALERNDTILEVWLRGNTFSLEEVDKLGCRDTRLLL
Compound,hNOD2-agonistic activity (in words) (human NOD2),EC50 (human NOD2),further results
"CCOC(=O)c1cc(-n2cnc3ccccc32)cs1 [Compound 1, Ethyl 4-(1H-benzo[d]imidazol-1-yl)thiophene-2-carboxylate]",,,"induction of chemokines and cytokines [1]: None of the small molecules (including 1, as well as the optimized, equipotent analogues 7e and 7f) showed any activity; induction of cytokines and chemokines (human whole blood): None of the small molecules (including 1, as well as the optimized, equipotent analogues 7e and 7f) showed any activity"
"CCCCOC(=O)[C@@H](CCC(N)=O)NC(=O)[C@H](C)NC(=O)[C@@H](C)O[C@H]1[C@H](O)[C@@H](CO)OC(O)[C@@H]1NC(C)=O (stereo partly drawn) [murabutide, N-Acetyl-muramyl-LAlanyl-D-Glutamin-n-butyl-ester, reference compound]",,,cytokine and chemokine induction [2]: abrogation of responsiveness; induction of chemokines and cytokines [1]: induced significant levels of cytokines and chemokines; induction of chemokines and proinflammatory cytokines [3]: potently immunostimulatory; also recorded: induction of chemokines and cytokines; induction of cytokines and chemokines (human whole blood): induced significant levels of cytokines and chemokines; cytokine and chemokine induction [4]: abrogation of responsiveness
"C=C(C)CCc1nc2ccccc2n1-c1csc(C(N)=O)c1 [Compound 7n, 4-(2-(3-Methylbut-3-en-1-yl)-1H-benzo[d]imidazol-1-yl)thiophene-2-carboxamide]",potencies very similar to the butyl analogue (7d),3.24 µM,
"NC(=O)c1cccc(-n2cnc3ccccc32)c1 [Compound 3k, 3-(1H-Benzo[d]imidazol-1-yl)benzamide]",devoid of activity,,
"NC(=O)c1coc(-n2cnc3ccccc32)n1 [Compound 3e, 2-(1H-Benzo[d]imidazol-1-yl)oxazole-4-carboxamide]",devoid of activity,,

# Now from value to molecule, other results behind:
hNOD2-agonistic activity (in words) (human NOD2),EC50 (human NOD2),Compound,further results
lower potency than the hit compound,8.26 µM,"CCCc1nc2ccccc2n1-c1csc(C(N)=O)c1 [Compound 7c, 4-(2-Propyl-1H-benzo[d]imidazol-1-yl)thiophene-2-carboxamide]",
inactive,,"CCCCCCCCCCCCCc1nc2ccccc2n1-c1csc(C(N)=O)c1 [Compound 7j, 4-(2-Tridecyl-1H-benzo[d]imidazol-1-yl)thiophene-2-carboxamide]",
lower potency than the hit compound,13.2 µM,"CCc1nc2ccccc2n1-c1csc(C(N)=O)c1 [Compound 7b, 4-(2-Ethyl-1H-benzo[d]imidazol-1-yl)thiophene-2-carboxamide]",
inactive,,"N#Cc1cc(-n2cnc3ccccc32)cs1 [Compound 4a, 4-(1H-Benzo[d]imidazol-1-yl)thiophene-2-carbonitrile]",
